B1: Fas ligand: death ligand, 100 ng/ml, PeoproTech (protein, UniProt P48023 130-281, looked up)
Tumor necrosis factor ligand …: QIGHPSPPPEKKELRKVAHLTGKSNSRSMPLEWEDTYGIVLLSGVKYKKGGLVINETGLYFVYSKVYFRGQSCNNLPLSHKVYMRNSKYPQDLVMMEGKMMSYCTTGQMWARSSYLGAVFNLTSADHLYVNVSELSLVNFEESQTFFGLYKL

Experiments:
[1] = system: B lymphoma cells; test: In vitro lymphocyte survival and apoptosis assays (trypan blue dye exclusion); type: cell-based, mouse; conditions: B lymphoma cells from p80HT transgenic mice; doxorubicin 0.5 μg/ml
Experimental: (§1) C-E: In vitro survival and apoptosis assays of splenic B cells and B lymphoma cells. Cells were either untreated (D) or treated with 0.5 μg/ml of doxorubicin (C) or with 20 μg/ml of LPS (E). Viability was determined by trypan blue dye exclusion assays. Data in (A-E) represent means±SD of cells from 5 mice of each genotype or from 58 lymphomas samples.
(§2) Purified splenic B cells and B lymphoma cells (10^5/well, 96-well plate) were cultured in DMEM supplemented with 10% FBS, 250 μM L-asparagine, and 50 μM 2-mercaptoethanol. Cells were either untreated or treated with recombinant mouse TNF-α (20 ng/ml, Calbiochem), Fas ligand (100 ng/ml, PeoproTech), LPS (20 μg/ml, Sigma), or doxorubicin (0.5 μg/ml, Ben Venue Laboratories), and viable cells were determined daily by trypan blue dye exclusion assays.

[2] = system: splenic B cells; test: as above; type: cell-based, mouse; conditions: for sensitivity of splenic B cells to death stimuli: both wild-type and p80HT splenic B cells, TNF-α 20 ng/ml, Fas ligand 100 ng/ml, doxorubicin 0.5 μg/ml
Experimental: as §1, §2

| Molecule | apoptosis induced by doxorubicin [1] | sensitivity of splenic B cells to death stimuli [2] | apoptosis induced by the activation signal (LPS) ([2]; p80HT splenic B cells, LPS 20 μg/ml) | response of splenic B cells to LPS ([2]; splenic B cells generally, LPS 20 μg/ml, after about 3 days of proliferation) |
| --- | --- | --- | --- | --- |
| COc1cccc2c1C(=O)c1c(O)c3c(c(O)c1C2=O)C[C@@](O)(C(=O)CO)C[C@@H]3O[C@H]1C[C@H](N)[C@H](O)[C@H](C)O1 [doxorubicin] | highly resistant | equally sensitive | – | – |
| TNF-a | – | highly resistant | – | – |
| lipopolysaccharide [LPS] | – | – | highly resistant | extensive apoptosis |
| B1 | – | highly resistant | – | – |
